Experimental data as given in the NIST ThermoML archive (doi:10.1016/j.jct.2012.01.028).
Numbers after ± are expanded uncertainties.

Settings: 101.33 kPa, Liquid; for electrical conductivity: Alternating current cell with electrodes; for speed of sound: Sing-around technique in a fixed-path interferometer; for mass density: Vibrating tube method

## CCCCn1cc[n+](C)c1.F[P-](F)(F)(F)(F)F [1-butyl-3-methylimidazolium hexafluorophosphate]
293.15 K
  electrical conductivity: 0.137 ± 0.0082 S/m
  speed of sound: 1454.9 ± 3.1 m/s
  mass density: 1371.61 ± 4.7 kg/m3
298.15 K
  electrical conductivity: 0.183 ± 0.011 S/m
  speed of sound: 1442.6 ± 3.1 m/s
  mass density: 1367.65 ± 4.7 kg/m3
303.15 K
  electrical conductivity: 0.224 ± 0.013 S/m
  speed of sound: 1430.7 ± 3.1 m/s
  mass density: 1363.13 ± 4.7 kg/m3
308.15 K
  electrical conductivity: 0.267 ± 0.016 S/m
  speed of sound: 1419 ± 3.1 m/s
  mass density: 1359.04 ± 4.6 kg/m3
313.15 K
  electrical conductivity: 0.314 ± 0.019 S/m
  speed of sound: 1407.6 ± 3.1 m/s
  mass density: 1354.93 ± 4.6 kg/m3
318.15 K
  electrical conductivity: 0.384 ± 0.023 S/m
  speed of sound: 1396.3 ± 3.1 m/s
  mass density: 1350.83 ± 4.6 kg/m3
323.15 K
  electrical conductivity: 0.459 ± 0.028 S/m
  speed of sound: 1385.2 ± 3.1 m/s
  mass density: 1346.72 ± 4.6 kg/m3
